From patent publication US10359430B2, “Selective near-infrared optical imaging of necrotic cells and simultaneous cell fixing and counter staining with metallacrown complexes” (THE REGENTS OF THE UNIVERSITY OF MICHIGAN, priority 2015, dated 2019)
Entries after “also recorded” stand apart in the source; their conditions may differ.

Columns and labels:
HeLa cells [1] = test: Cytotoxicity test with Alamar blue; format: cell-based, Human; settings: FIG. 6, text says 5 hours, figure legend 24 and 48 hours
Method: In order to determine if the LnZn16(pyz)16MC complexes (Ln^3+Zn(II)MCHAD are toxic for live cells, cytotoxicity tests with Alamar blue were performed.
Alamar blue is viability reagent which functions as a cell health indicator by using the reducing power of living cells to quantitatively measure the proliferation of different human and animal cell lines. This enables the cytotoxicity of different chemical complexes to be determined. The active ingredient of Alamar Blue is resazurin, which is non-toxic and cell permeable compound, and upon entering in the cells, it is reduced to highly fluorescent resorufin.
The cytotoxicity tests were performed with Alamar blue assay (Invitrogen, France). HeLa cells were seeded in 96-well plate at the density of 1*10^4 cells per well and cultured at 37° C. in 5% humidified CO2 atmosphere. After 24 hours of attachment, the cells were incubated with different concentrations of Yb^3+[Zn(II)MCpyzHA] in cell culture medium for 24 and 48 hours followed by incubation with Alamar blue (10% v/v) for 3 to 4 hours at 37° C. in 5% humidified CO2 atmosphere.
Fluorescence of Alamar blue was measured with plate reader (Victor 3V, Perkin Elmer, France), with excitation at 530 nm and emission at 590 nm, for cells incubated with Yb^3+[Zn(II)MCpyzHA] and for untreated cells (control).

[2] = Photophysical properties of the metallacrowns in solid state and in aqueous solutions; format: physicochemical
Method: FIG. 4. illustrates the normalized excitation (λem(Nd^3+)=1070 nm, λem(Yb^3+)=980 nm) and emission (λex=370 nm) spectra of Yb^3+[Zn(II)MCpyzHA], at the top, and Nd^3+[Zn(II)MCpyzHA] MCs, at the bottom, (solid or 200 μM solutions, room temperature).

HeLa cells [3] = test: NIR epifluorescence microscopy of HeLa cells treated with N-acetyl cysteine; format: cell-based, Human; settings: 150 μM complex 15 minutes
Method: Formation of extracellular vesicules is a result of cellular response on oxidative stress which indicates excessive production of ROS (Reactive oxygen species). In order to investigate if ROS are responsible for dual function of Yb^3+[Zn(II)MCpyzHA], HeLa cancer cells were treated with NAC (N-acetyl cysteine), which is a well known antioxidant that efficiently blocks production of reactive oxygen species (ROS).
Cells were seeded in a 8-well Lab Tek Chamber coverglass (Nunc, Dutsher S.A., Brumath, France) at a density of 6×10^4 cells/well and cultured at 37° C. in 5% humidified CO2 atmosphere.
After 24 hours, the cell culture media was removed. Some of the cells were washed twice with OPTI-MEM® media (room temperature), incubated with N-acetyl cysteine (NAC) for 15 minutes, washed twice with OPTI-MEM® media and incubated with 150 μM of Yb^3+[Zn(II)MCpyzHA] for 15 minutes.
After 24 hours, the cell culture media was removed. Some of the cells were washed twice with OPTI-MEM® media (room temperature), and incubated with 150 μM of Yb^3+[Zn(II)MCpyzHA] for 15 minutes. N-acetyl cysteine (NAC) was added, and the cells were incubated for another 30 minutes. The cells were washed twice with OPTI-MEM® media.

HeLa cells [4] = test: Confocal microscopy of HeLa cells; format: cell-based, Human; settings: 150 μM, 15 minutes, UV light (377 nm) 8 minutes, further 1 hour; λex 458 nm, λem 499-799 nm
Description: Complexes were excited with Argon laser at 458 nm and emission signal was collected from 499 nm to 799 nm. During this experiment, a 63× Plan-Apochromat objective was used (2× zoom).

[5] = Photophysical parameters in OPTI-MEM media, cell supernatant and HeLa cells; format: physicochemical
Method: The Yb^3+[Zn(II)MCpyzHA] complexes were dissolved in OPTI-MEM® medium with 2% SVF (without cells) and were incorporated in HeLa cells, both with and without exposure to UV light. The results in are shown in FIG. 20, (A) (corrected and normalized excitation) and FIG. 20, (B) (corrected and normalized emission). […] The present inventors developed instrumentation in order to collect photophysical properties of MCs inside of cancer cells. They measured quantitative photophysical parameters (quantum yields and life times) inside of the cells with equipment which is usually adapted for measuring of (quantum yields and life times) in solids or in concentrated solutions.
The Yb^3+[Zn(II)MCpyzHA] complexes were collected together with cell supernatant (SN) and with HeLa cells treated with N-acetyl cysteine, both with and without exposure to UV light. For SN1 and cells1, incubation with NAC took place for 30 minutes, then the cells were washed, and incubation with Yb^3+[Zn(II)MCpyzHA] took place for 15 minutes. For SN2 and cells2, incubation with Yb^3+[Zn(II)MCpyzHA] took place for 15 minutes, and then NAC was added and incubation with NAC took place for 30 minutes. The results in are shown in FIGS. 20C (corrected and normalized excitation) and 20D (corrected and normalized emission). […]

[6] = No UV NAC (SN1*): cell supernatant, NAC 30 minutes, washed, then complex 15 minutes
[7] = No UV NAC (SN2*): cell supernatant, complex 15 minutes, then NAC 30 minutes
[8] = No UV NAC (in cells1*): NAC 30 minutes, washed, then complex 15 minutes
[9] = No UV NAC (in cells2*): complex 15 minutes, then NAC 30 minutes
[10] = No UV: After 5 h of incubation with HeLa cells without illumination
[11] = UV NAC (SN2*): cell supernatant, complex 15 minutes, then NAC 30 minutes
[12] = UV NAC (in cells2*): complex 15 minutes, then NAC 30 minutes
[13] = UV: After 5 h of incubation with HeLa cells with UV illumination (during 8 min)

O=C([N-][O-])c1cnccn1.O=C([N-][O-])c1cnccn1.O=C([N-][O-])c1cnccn1.O=C([N-][O-])c1cnccn1.O=C([N-][O-])c1cnccn1.O=C([N-][O-])c1cnccn1.O=C([N-][O-])c1cnccn1.O=C([N-][O-])c1cnccn1.O=C([N-][O-])c1cnccn1.O=C([N-][O-])c1cnccn1.O=C([N-][O-])c1cnccn1.O=C([N-][O-])c1cnccn1.O=C([N-][O-])c1cnccn1.O=C([N-][O-])c1cnccn1.O=C([N-][O-])c1cnccn1.O=C([N-][O-])c1cnccn1.O=S(=O)([O-])C(F)(F)F.O=S(=O)([O-])C(F)(F)F.O=S(=O)([O-])C(F)(F)F.[Yb+3].[Zn+2].[Zn+2].[Zn+2].[Zn+2].[Zn+2].[Zn+2].[Zn+2].[Zn+2].[Zn+2].[Zn+2].[Zn+2].[Zn+2].[Zn+2].[Zn+2].[Zn+2].[Zn+2].c1ccncc1.c1ccncc1.c1ccncc1.c1ccncc1.c1ccncc1.c1ccncc1.c1ccncc1.c1ccncc1 [Yb^3+[Zn(II)MCpyzHA]]
Cells remained alive (HeLa cells [1]; 45 μM): approximately 70% | Concentration from which the complex started to be significantly toxic (HeLa cells [1]): ≥ 45 µM | Q (quantum yield), D2O ([2]; 200 μM in D2O, room temperature, excitation at 370 nm): 0.257(3) % | Q (quantum yield), H2O ([2]; 200 μM in H2O, room temperature, excitation at 370 nm): 1.12(7) · 10^−2% | Excitation wavelength limit ([2]; FIG. 4 (Top), excitation spectrum): up to 480 nm | Q (quantum yield), Solid ([2]; solid state, room temperature, excitation at 370 nm): 0.659(4) % | Internalization inside the cells, complex Incubation First (HeLa cells [3]; then NAC 30 minutes): do not show internalization | NIR signal in cells, NAC Incubation First (HeLa cells [3]; NAC 15 minutes, wash, exposure time 400 ms): very good signal in NIR | Intracellular location (confocal, visible ligand emission) (HeLa cells [4]): specifically located in nucleus as well as in cytoplasm | Quantum yield ([5]; In HeLa cells): 2.14(6) · 10^−2% | τ2 ([5]; In HeLa cells): 23.6(7) μs | τ2 contribution ([5]; In HeLa cells): 100% | Quantum yield [5, 6]: 1.08(1) · 10^−2% | τ1 [5, 6]: 7.27(2) μs | τ1 contribution [5, 6]: 91% | τ2 [5, 6]: 50(2) μs | τ2 contribution [5, 6]: 9% | Quantum yield [5, 7]: 1.00(4) · 10^−2% | τ1 [5, 7]: 6.72(3) μs | τ1 contribution [5, 7]: 88% | τ2 [5, 7]: 28.4(1) μs | τ2 contribution [5, 7]: 12% | τ1 [5, 8]: 7.5(4) μs | τ1 contribution [5, 8]: 6% | τ2 [5, 8]: 22.9(1) μs | τ2 contribution [5, 8]: 94% | τ1 [5, 9]: 7.3(1) μs | τ1 contribution [5, 9]: 7% | τ2 [5, 9]: 23.6(2) μs | τ2 contribution [5, 9]: 93% | Quantum yield [5, 10]: 1.52(3) · 10^−2% | τ1 [5, 10]: 6.47(4) μs | τ1 contribution [5, 10]: 75% | τ2 [5, 10]: 21.6(8) μs | τ2 contribution [5, 10]: 25% | Quantum yield ([5]; OptiMEM): 1.25(1) · 10^−2% | τ1 ([5]; OptiMEM): 6.45(5) μs | τ1 contribution ([5]; OptiMEM): 89% | τ2 ([5]; OptiMEM): 24(1) μs | τ2 contribution ([5]; OptiMEM): 11% | Quantum yield ([5]; OptiMEM-UV 1 h 30 min): 2.05(5) · 10^−2% | τ1 ([5]; OptiMEM-UV 1 h 30 min): 7.03(3) μs | τ1 contribution ([5]; OptiMEM-UV 1 h 30 min): 61% | τ2 ([5]; OptiMEM-UV 1 h 30 min): 21.5(1) μs | τ2 contribution ([5]; OptiMEM-UV 1 h 30 min): 39% | Quantum yield [5, 11]: 1.06(5) · 10^−2% | τ1 [5, 11]: 6.80(9) μs | τ1 contribution [5, 11]: 75% | τ2 [5, 11]: 23(1) μs | τ2 contribution [5, 11]: 25% | τ1 [5, 12]: 8.7(5) μs | τ1 contribution [5, 12]: 9% | τ2 [5, 12]: 23.2(1) μs | τ2 contribution [5, 12]: 91% | Quantum yield [5, 13]: 1.64(5) · 10^−2% | τ1 [5, 13]: 6.51(8) μs | τ1 contribution [5, 13]: 65% | τ2 [5, 13]: 21(1) μs | τ2 contribution [5, 13]: 35% | Contribution of the long lifetime inside of HeLa cells ([5]; all experimental conditions): more than 90% | Integrity of the MC ([5]; cell culture media and cells, different experimental conditions): stays intact in cell culture media and in the cells | Change of luminescent properties in media, cell supernatant or HeLa cells ([5]; with/without exposure to UV light): did not change in the cells; also recorded: did not change in cell supernatant or inside of the HeLa cells
